Columns and labels:
[1] = system: Lymph node T cells from CD28-deficient mice; assay: Proliferation of retrovirally reconstituted T cells from CD28-deficient mice; format: cell-based, mouse; settings: single stimulus, anti-CD3 or PMA alone; 36-h culture; quadruplicate
[2] = system: c-fos promoter in Jurkat cells; assay: c-fos luciferase reporter, Jurkat cells; format: cell-based; settings: presence and absence of CD28 antibodies, vs wild-type mCD28
[3] = system: c-Src; settings: coexpression in 293 cells; cited from earlier work

**Q.** For CCCCCCCCCCCCCC(=O)O[C@@H]1[C@@H](C)[C@@]2(O)[C@@H](C=C(CO)C[C@]3(O)C(=O)C(C)=C[C@@H]23)[C@@H]2C(C)(C)[C@]12OC(C)=O [PMA], which “proliferation ([3H]thymidine), control retrovirus” value [1] is on record?
**A.** Its value is “proliferated weakly”.

**Q.** Which “induction of c-fos promoter (in words)” value [2] does the source give for “mutated form of mCD28: CD28 with alanines substituted for prolines 187 and 190” here?
**A.** Its value is “significantly impaired in its ability to induce the c-fos promoter”.

B1: SIN: SH3 binding protein, SIN (protein, UniProt Q64355 1-560, looked up)
Embryonal Fyn-associated …: MAIATSAQLARALYDNTAESPQELSFRRGDVLRVLQREGAGGLDGWCLCSLHGQQGIVPANRVKLLPAGPAPKPSLCPASPTQPGSSCPTPERGCEEQEVYVIPPPARPCSASGLPARSCSPSSDSIYKVPRGNGMQLTASRDVAEVYDVPPNILRAPSSCPYDSPASFSCPVAPVVPQPPREDEAPYDVPLALKPPAELERDPEWEGGREPGPPLYAAPSNLKRASALLNLYEAPEELLANGESRDADEGIYDVPLLGPEPPSPEPPVASSSTDLDTVAQLPTRSSPPQHRPRLPSTESLSRRPLPALPVSEAPAPSPAPSPAPGRKGSIQDRPLPPPPPCLPGYGGLKPEGDPECREVANDPAGPHNEYEGIPMAEEYDYVHLKGVDTAQGSRPLDKAFPVDPELLERGLAERKEALSPEEPLVLSTGDLQLLHFYAGQCQSHYSALQAAVAALVASTQANQPPCLFVPHGKRVVVAAHRLVFVGDTLGRLAASAALRAQVGAAGTMLAQTLRATVLAVKGAALGYPSDTAVQEMARCVAELAGQALRFTTLLDGLLP
**Q.** With B1 as the molecule, how does the “c-Src kinase activity induction” value [3] read?
**A.** Its value is “can be induced”.

Reference: paper PMC2195584 (The Journal of Experimental Medicine, 1999)
